Tests used:
Settings in all cases: 48 h
SEM cells [1] = assay: cell viability relative to DMSO control; higher = less cytotoxic
Outline: (§1)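 In 1536-well plates, 5 μl of leukemia cells were seeded per well: 500 cells/well for NOMO1 or SEM and 1000 cells/well for P12-Ichikawa. Each line had first been adapted for at least four passages in each medium. Library compounds in DMSO were pin-dosed at 11 threefold concentrations between 47 μM and 0.79 nM, and CellTiter-Glo One luminescence was read after 48 h at 37°C. Viability is a per-plate percentage relative to DMSO wells, with cell-free wells as background.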

NOMO1 [2] = assay: as above
Outline: as §1

P12-Ichikawa [3] = assay: as above
Outline: as §1

SEM cells [4] = assay: AUC of viability dose-response curve (% viability x log10 dose units); higher = less sensitive
Outline: (§2)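 Area under the curve was integrated by trapezoidal rule from a log-logistic fit of normalised viability, with curves exceeding full viability scaled and quality-control failures removed. The fit had four parameters over log10 doses. Viability came from CellTiter-Glo One luminescence, normalised per plate to DMSO and cell-free wells, after leukemia cells adapted to each medium (500 or 1000 cells/well, 1536-well plates) were exposed to library compounds in DMSO for 48 h at 37°C. The 11 threefold doses ran from 47 μM to 0.79 nM.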

NOMO1 [5] = assay: as above
Outline: as §2

P12-Ichikawa [6] = assay: as above
Outline: as §2

CN1CCN(CCOc2cc(OC3CCOCC3)c3c(Nc4c(Cl)ccc5c4OCO5)ncnc3c2)CC1
cell viability [%]
Settings	NOMO1 [2]	P12-Ichikawa [3]	SEM cells [1]
HPLM + 10% dialyzed FBS, 0.000781 µM	134	121	106
HPLM + 10% dialyzed FBS, 0.00234 µM	119	125	119
HPLM + 10% dialyzed FBS, 0.00702 µM	125	130	115
HPLM + 10% dialyzed FBS, 0.0211 µM	131	134	118
HPLM + 10% dialyzed FBS, 0.0632 µM	125	130	122
HPLM + 10% dialyzed FBS, 0.19 µM	123	128	126
HPLM + 10% dialyzed FBS, 0.569 µM	134	136	113
HPLM + 10% dialyzed FBS, 1.71 µM	123	124	116
HPLM + 10% dialyzed FBS, 5.12 µM	89.4	101	78.4
HPLM + 10% dialyzed FBS, 15.4 µM	60.1	32.3	61.6
HPLM + 10% dialyzed FBS, 46.1 µM	71.4	20	30.3
RPMI 5 mM glucose + 10% FBS, 0.000781 µM	–	–	121
RPMI 5 mM glucose + 10% FBS, 0.00234 µM	–	–	120
RPMI 5 mM glucose + 10% FBS, 0.00702 µM	–	–	128
RPMI 5 mM glucose + 10% FBS, 0.0211 µM	–	–	110
RPMI 5 mM glucose + 10% FBS, 0.0632 µM	–	–	128
RPMI 5 mM glucose + 10% FBS, 0.19 µM	–	–	109
RPMI 5 mM glucose + 10% FBS, 0.569 µM	–	–	85.5
RPMI 5 mM glucose + 10% FBS, 1.71 µM	–	–	109
RPMI 5 mM glucose + 10% FBS, 5.12 µM	–	–	62.9
RPMI 5 mM glucose + 10% FBS, 15.4 µM	–	–	34.3
RPMI 5 mM glucose + 10% FBS, 46.1 µM	–	–	19.7

AUC of viability dose-response curve
Settings	NOMO1 [5]	P12-Ichikawa [6]	SEM cells [4]
HPLM + 10% dialyzed FBS	428	410	416
RPMI 5 mM glucose + 10% FBS	463	446	378
RPMI 5 mM glucose + 10% dialyzed FBS	459	429	391

CCOc1cc(CC(=O)N[C@@H](CC(C)C)c2ccccc2N2CCCCC2)ccc1C(=O)O
cell viability [%]
Settings	NOMO1 [2]	P12-Ichikawa [3]	SEM cells [1]
HPLM + 10% dialyzed FBS, 0.000781 µM	117	113	83.9
HPLM + 10% dialyzed FBS, 0.00234 µM	120	124	104
HPLM + 10% dialyzed FBS, 0.00702 µM	139	116	121
HPLM + 10% dialyzed FBS, 0.0211 µM	138	129	106
HPLM + 10% dialyzed FBS, 0.0632 µM	141	130	116
HPLM + 10% dialyzed FBS, 0.19 µM	126	125	109
HPLM + 10% dialyzed FBS, 0.569 µM	46.7	129	122
HPLM + 10% dialyzed FBS, 1.71 µM	43.4	111	117
HPLM + 10% dialyzed FBS, 5.12 µM	37	12.2	132
HPLM + 10% dialyzed FBS, 15.4 µM	41.1	13.3	125
HPLM + 10% dialyzed FBS, 46.1 µM	34.7	13.4	119
RPMI 5 mM glucose + 10% FBS, 0.000781 µM	–	110	103
RPMI 5 mM glucose + 10% FBS, 0.00234 µM	–	130	110
RPMI 5 mM glucose + 10% FBS, 0.00702 µM	–	119	109
RPMI 5 mM glucose + 10% FBS, 0.0211 µM	–	137	109
RPMI 5 mM glucose + 10% FBS, 0.0632 µM	–	124	106
RPMI 5 mM glucose + 10% FBS, 0.19 µM	–	127	108
RPMI 5 mM glucose + 10% FBS, 0.569 µM	–	135	118
RPMI 5 mM glucose + 10% FBS, 1.71 µM	–	120	134
RPMI 5 mM glucose + 10% FBS, 5.12 µM	–	16.4	127
RPMI 5 mM glucose + 10% FBS, 15.4 µM	–	17.6	129
RPMI 5 mM glucose + 10% FBS, 46.1 µM	–	19.6	123
RPMI 5 mM glucose + 10% dialyzed FBS, 0.000781 µM	–	–	105
RPMI 5 mM glucose + 10% dialyzed FBS, 0.00234 µM	–	–	113
RPMI 5 mM glucose + 10% dialyzed FBS, 0.00702 µM	–	–	123
RPMI 5 mM glucose + 10% dialyzed FBS, 0.0211 µM	–	–	127
RPMI 5 mM glucose + 10% dialyzed FBS, 0.0632 µM	–	–	109
RPMI 5 mM glucose + 10% dialyzed FBS, 0.19 µM	–	–	114
RPMI 5 mM glucose + 10% dialyzed FBS, 0.569 µM	–	–	119
RPMI 5 mM glucose + 10% dialyzed FBS, 1.71 µM	–	–	137
RPMI 5 mM glucose + 10% dialyzed FBS, 5.12 µM	–	–	130
RPMI 5 mM glucose + 10% dialyzed FBS, 15.4 µM	–	–	128
RPMI 5 mM glucose + 10% dialyzed FBS, 46.1 µM	–	–	134

AUC of viability dose-response curve
Settings	NOMO1 [5]	P12-Ichikawa [6]	SEM cells [4]
HPLM + 10% dialyzed FBS	327	365	459
RPMI 5 mM glucose + 10% FBS	310	373	432
RPMI 5 mM glucose + 10% dialyzed FBS	337	387	436

CCOC(=O)/C=C/[C@H](C[C@@H]1CCNC1=O)NC(=O)[C@@H](CC(=O)[C@@H](NC(=O)c1cc(C)on1)C(C)C)Cc1ccc(F)cc1
cell viability [%]
Settings	NOMO1 [2]	P12-Ichikawa [3]	SEM cells [1]
HPLM + 10% dialyzed FBS, 0.000781 µM	–	122	90.8
HPLM + 10% dialyzed FBS, 0.00234 µM	–	115	101
HPLM + 10% dialyzed FBS, 0.00702 µM	–	121	103
HPLM + 10% dialyzed FBS, 0.0211 µM	–	87.7	90.4
HPLM + 10% dialyzed FBS, 0.0632 µM	–	130	111
HPLM + 10% dialyzed FBS, 0.19 µM	–	127	116
HPLM + 10% dialyzed FBS, 0.569 µM	–	126	110
HPLM + 10% dialyzed FBS, 1.71 µM	–	117	116
HPLM + 10% dialyzed FBS, 5.12 µM	–	121	115
HPLM + 10% dialyzed FBS, 15.4 µM	–	122	113
HPLM + 10% dialyzed FBS, 46.1 µM	–	117	105
RPMI 5 mM glucose + 10% FBS, 0.000781 µM	–	114	115
RPMI 5 mM glucose + 10% FBS, 0.00234 µM	–	122	121
RPMI 5 mM glucose + 10% FBS, 0.00702 µM	–	130	118
RPMI 5 mM glucose + 10% FBS, 0.0211 µM	–	76.8	79.8
RPMI 5 mM glucose + 10% FBS, 0.0632 µM	–	135	127
RPMI 5 mM glucose + 10% FBS, 0.19 µM	–	135	116
RPMI 5 mM glucose + 10% FBS, 0.569 µM	–	134	123
RPMI 5 mM glucose + 10% FBS, 1.71 µM	–	136	127
RPMI 5 mM glucose + 10% FBS, 5.12 µM	–	121	115
RPMI 5 mM glucose + 10% FBS, 15.4 µM	–	120	97.3
RPMI 5 mM glucose + 10% FBS, 46.1 µM	–	119	104
RPMI 5 mM glucose + 10% dialyzed FBS, 0.000781 µM	119	112	100
RPMI 5 mM glucose + 10% dialyzed FBS, 0.00234 µM	124	106	120
RPMI 5 mM glucose + 10% dialyzed FBS, 0.00702 µM	143	118	119
RPMI 5 mM glucose + 10% dialyzed FBS, 0.0211 µM	118	80.2	82.5
RPMI 5 mM glucose + 10% dialyzed FBS, 0.0632 µM	132	111	136
RPMI 5 mM glucose + 10% dialyzed FBS, 0.19 µM	118	119	133
RPMI 5 mM glucose + 10% dialyzed FBS, 0.569 µM	130	115	128
RPMI 5 mM glucose + 10% dialyzed FBS, 1.71 µM	131	128	127
RPMI 5 mM glucose + 10% dialyzed FBS, 5.12 µM	144	119	129
RPMI 5 mM glucose + 10% dialyzed FBS, 15.4 µM	155	124	132
RPMI 5 mM glucose + 10% dialyzed FBS, 46.1 µM	125	118	108

AUC of viability dose-response curve
Settings	NOMO1 [5]	P12-Ichikawa [6]	SEM cells [4]
HPLM + 10% dialyzed FBS	471	466	452
RPMI 5 mM glucose + 10% FBS	469	459	463
RPMI 5 mM glucose + 10% dialyzed FBS	440	450	454

CCN1CCCC1CNC(=O)c1cc([S+](N)(=O)[O-])ccc1OC (stereo unspecified)
cell viability [%]
Settings	NOMO1 [2]	P12-Ichikawa [3]	SEM cells [1]
HPLM + 10% dialyzed FBS, 0.000781 µM	104	111	90
HPLM + 10% dialyzed FBS, 0.00234 µM	117	115	88.7
HPLM + 10% dialyzed FBS, 0.00702 µM	127	119	97.6
HPLM + 10% dialyzed FBS, 0.0211 µM	127	108	87.3
HPLM + 10% dialyzed FBS, 0.0632 µM	142	125	102
HPLM + 10% dialyzed FBS, 0.19 µM	128	121	90.1
HPLM + 10% dialyzed FBS, 0.569 µM	111	116	102
HPLM + 10% dialyzed FBS, 1.71 µM	117	118	107
HPLM + 10% dialyzed FBS, 5.12 µM	140	113	108
HPLM + 10% dialyzed FBS, 15.4 µM	121	120	69.1
HPLM + 10% dialyzed FBS, 46.1 µM	78	109	102
RPMI 5 mM glucose + 10% FBS, 0.000781 µM	120	–	96.8
RPMI 5 mM glucose + 10% FBS, 0.00234 µM	113	–	102
RPMI 5 mM glucose + 10% FBS, 0.00702 µM	102	–	112
RPMI 5 mM glucose + 10% FBS, 0.0211 µM	103	–	92.4
RPMI 5 mM glucose + 10% FBS, 0.0632 µM	123	–	105
RPMI 5 mM glucose + 10% FBS, 0.19 µM	106	–	111
RPMI 5 mM glucose + 10% FBS, 0.569 µM	118	–	106
RPMI 5 mM glucose + 10% FBS, 1.71 µM	120	–	112
RPMI 5 mM glucose + 10% FBS, 5.12 µM	119	–	102
RPMI 5 mM glucose + 10% FBS, 15.4 µM	117	–	66
RPMI 5 mM glucose + 10% FBS, 46.1 µM	105	–	97.8
RPMI 5 mM glucose + 10% dialyzed FBS, 0.000781 µM	111	107	102
RPMI 5 mM glucose + 10% dialyzed FBS, 0.00234 µM	126	117	91.6
RPMI 5 mM glucose + 10% dialyzed FBS, 0.00702 µM	106	121	110
RPMI 5 mM glucose + 10% dialyzed FBS, 0.0211 µM	125	117	113
RPMI 5 mM glucose + 10% dialyzed FBS, 0.0632 µM	115	126	118
RPMI 5 mM glucose + 10% dialyzed FBS, 0.19 µM	139	117	122
RPMI 5 mM glucose + 10% dialyzed FBS, 0.569 µM	131	124	107
RPMI 5 mM glucose + 10% dialyzed FBS, 1.71 µM	134	126	123
RPMI 5 mM glucose + 10% dialyzed FBS, 5.12 µM	122	124	133
RPMI 5 mM glucose + 10% dialyzed FBS, 15.4 µM	126	128	59.1
RPMI 5 mM glucose + 10% dialyzed FBS, 46.1 µM	129	117	121

AUC of viability dose-response curve
Settings	NOMO1 [5]	P12-Ichikawa [6]	SEM cells [4]
HPLM + 10% dialyzed FBS	467	476	453
RPMI 5 mM glucose + 10% FBS	470	467	460
RPMI 5 mM glucose + 10% dialyzed FBS	455	469	470

From the supplement of paper PMC11451515
